The results in this text go back to patent US9447108B2 (SZEGEDI TUDOMÁNYEGYETEM, priority 2013, dated 2016).

The target in one assay is T1, μ-opioid receptors (Rattus norvegicus, UniProt P33535).
T1 construct: A crude membrane fraction was prepared from Wistar rat brains and spinal cords; from tissue; host or cells: Wistar rat brain (without cerebellum), crude membrane fraction
The experiment in a line: Receptor binding assay, [3H]DAMGO displacement in rat brain membranes.

For a further assay, the target named is T2, δ-opioid receptors (Rattus norvegicus, UniProt P33533).
T2 construct: A crude membrane fraction was prepared from Wistar rat brains and spinal cords; from tissue; host or cells: Wistar rat brain (without cerebellum), crude membrane fraction
The experiment in a line: Receptor binding assay, [3H]Ile5,6-deltorphin-2 displacement in rat brain membranes.

A further assay relates to rats. The experiment in a line: Behavioral nociceptive testing, paw-withdrawal test (PWD), heat pain threshold. Type of assay: in vivo, rat. The conditions noted are these: for antinociception, potency and dose dependence: s.c., 0.3-10 mg/kg. How it is done: The paw-withdrawal test (PWD) was used to measure the heat pain threshold after the treatments. A detailed description of this model was published by Hargreaves et al. (Hargreaves, K.; Dubner, R.; Brown, F.; Flores, C.; Joris, J. Pain; 32, 77 1988). Briefly, rats were placed on a glass surface in a plastic chamber and were allowed to acclimatize to their environment for 15-30 min before testing. The baseline hind paw-withdrawal latencies (baseline values at 0 min determined two times) were then obtained. A heat stimulus was directed onto the plantar surface of each hind paw and the intensity of the thermal stimulus was adjusted to derive an average baseline latency of approximately 10 s (cut-off time 20 s). Then the animals were treated subcutaneously with different doses of ligands (0.3-10 mg/kg). The nociceptive threshold was determined at 15-min intervals for 120 min.
Data are presented as means±SEM. The mean of the two sides and the mean of two time points (15-30; 45-60; 75-90 and […]) were evaluated. The results were analyzed using a two-way ANOVA (ANalysis Of VAriances) (factors: treatment and time with repeated measurements). Subsequent analysis was performed using Fisher-LSD test. A p-value less than 0.05 was considered significant. Data were analyzed using […] 7.1. software (Statsoft Inc., Tulsa, Okla.).

The mark [1] stands for this setting: 10 mg/kg s.c., 0 min (baseline).

Molecules are shown by their SMILES.

T2 sequence (P33533 whole entry): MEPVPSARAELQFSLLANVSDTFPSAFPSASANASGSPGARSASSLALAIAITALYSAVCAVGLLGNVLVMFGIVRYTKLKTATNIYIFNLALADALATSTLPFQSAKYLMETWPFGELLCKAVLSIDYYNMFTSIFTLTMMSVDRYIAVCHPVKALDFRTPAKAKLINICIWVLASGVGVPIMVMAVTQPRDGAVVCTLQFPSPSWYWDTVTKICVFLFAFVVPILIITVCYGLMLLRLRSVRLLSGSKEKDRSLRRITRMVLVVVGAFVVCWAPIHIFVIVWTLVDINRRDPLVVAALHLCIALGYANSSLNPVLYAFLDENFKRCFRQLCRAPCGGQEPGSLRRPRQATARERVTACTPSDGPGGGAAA
T1 sequence (P33535 whole entry): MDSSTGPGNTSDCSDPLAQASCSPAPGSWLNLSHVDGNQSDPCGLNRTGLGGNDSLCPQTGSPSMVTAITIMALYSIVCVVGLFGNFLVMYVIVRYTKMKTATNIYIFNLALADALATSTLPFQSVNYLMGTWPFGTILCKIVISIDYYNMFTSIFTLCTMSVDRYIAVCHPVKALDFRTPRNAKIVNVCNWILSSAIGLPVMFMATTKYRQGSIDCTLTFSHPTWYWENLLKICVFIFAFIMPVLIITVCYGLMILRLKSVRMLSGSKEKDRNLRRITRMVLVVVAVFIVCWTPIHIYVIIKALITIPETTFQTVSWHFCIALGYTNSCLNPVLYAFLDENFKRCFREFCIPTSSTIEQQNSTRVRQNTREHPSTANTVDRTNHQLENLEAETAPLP

By Ki is commonly meant a dissociation constant, usually derived from enzyme kinetics or from competition with a known ligand. High values mean lower affinity, low ones higher affinity. As to `COc1ccc2c3c1O[C@H]1[C@@H](O)CC[C@H]4[C@@H](C2)N(C)CC[C@@]341` [Dihydrocodeine], the figures for the Ki on μ-opioid receptors and on δ-opioid receptors were 0.122 ± 0.015 µM and greater than 10 µM, respectively. The “Time course of the antinociceptive effects (paw-withdrawal latency)” value (“Time course” for short) in the assay on rats (3 mg/kg s.c., 0 min (baseline)) came to 10.1 s; with rats (3 mg/kg s.c., 30 min), 11.1 s; in the assay on rats (3 mg/kg s.c., 60 min), 10.7 s; in the assay on rats (3 mg/kg s.c., 90 min), 10.5 s; in the assay on rats (3 mg/kg s.c., 120 min), 10.3 s; in the assay with rats (setting [1]), 9.9 s. Moreover, the “Time course” value in the assay on rats (10 mg/kg s.c., 30 min) worked out at 13.4 s; with rats (10 mg/kg s.c., 60 min), 13.6 s; in the assay with rats (10 mg/kg s.c., 90 min), 10.9 s; with rats (10 mg/kg s.c., 120 min), 9.8 s.

Turning to `CCOc1ccc2c3c1O[C@H]1[C@@H](O)CC[C@H]4[C@@H](C2)N(C)CC[C@@]341` [Dihydroethylmorphine], the “Time course” value in the assay on rats (3 mg/kg s.c., 0 min (baseline)) was found to be 10.1 s; with rats (3 mg/kg s.c., 30 min) it was 11.3 s; in the assay on rats (3 mg/kg s.c., 60 min) it was 10.9 s; in the assay with rats (3 mg/kg s.c., 90 min) it was 10.2 s; with rats (3 mg/kg s.c., 120 min) it was 9.9 s; with rats (setting [1]) it was 10.2 s. Moreover, the “Time course” value in the assay with rats (10 mg/kg s.c., 30 min) was found to be 11.5 s; in the assay on rats (10 mg/kg s.c., 60 min), 12.3 s; with rats (10 mg/kg s.c., 90 min) it was 12.0 s; in the assay with rats (10 mg/kg s.c., 120 min), 10.4 s.

In the case of `CC(=O)Oc1ccc2c3c1O[C@H]1[C@@H](OC(C)=O)CC[C@H]4[C@@H](C2)N(C)CC[C@@]341` [Dihydroheroine], the “Time course” value with rats (3 mg/kg s.c., 0 min (baseline)) was 10.1 s; with rats (3 mg/kg s.c., 30 min), 17.3 s; in the assay with rats (3 mg/kg s.c., 60 min), 15.6 s; in the assay on rats (3 mg/kg s.c., 90 min) it was 12.9 s; in the assay on rats (3 mg/kg s.c., 120 min) it was 10.7 s.

As for `CN1CC[C@]23c4c5ccc(O)c4O[C@H]2[C@@H](O)CC[C@H]3[C@H]1C5` [Dihydromorphine], the “Time course” value in the assay with rats (3 mg/kg s.c., 0 min (baseline)) came out at 10.2 s; in the assay on rats (3 mg/kg s.c., 30 min), 13.1 s; with rats (3 mg/kg s.c., 60 min), 13.9 s; with rats (3 mg/kg s.c., 90 min) it was 14.1 s; in the assay on rats (3 mg/kg s.c., 120 min), 13.3 s; in the assay with rats (setting [1]), 10.1 s. The “Time course” value with rats (10 mg/kg s.c., 30 min) came out at 19.4 s; with rats (10 mg/kg s.c., 60 min) it was 20.6 s; with rats (10 mg/kg s.c., 90 min) it was 15.3 s; in the assay on rats (10 mg/kg s.c., 120 min), 14.1 s.

With `[2H][C@@H]1[C@H]([2H])[C@H]2[C@H]3Cc4ccc(O)c5c4[C@@]2(CCN3C)[C@@H](O5)[C@H]1O` [Example 1, (5α,6α,7β,8β)-3,6-dihydroxy-4,5-epoxy-17-methyl-(7,8-^2H2)-morphinan], the “Time course” value with rats (3 mg/kg s.c., 0 min (baseline)) worked out at 10.1 s; with rats (3 mg/kg s.c., 30 min), 14.1 s; in the assay on rats (3 mg/kg s.c., 60 min), 14.9 s; in the assay on rats (3 mg/kg s.c., 90 min) it was 14.9 s; with rats (3 mg/kg s.c., 120 min), 14.1 s; in the assay with rats (setting [1]), 9.8 s. Besides, the “Time course” value came out at 21.3 s in the assay with rats (10 mg/kg s.c., 30 min); 22.1 s in the assay on rats (10 mg/kg s.c., 60 min); 16.8 s with rats (10 mg/kg s.c., 90 min); 16.1 s in the assay with rats (10 mg/kg s.c., 120 min). In addition, the “antinociceptive effect at 3 mg/kg, efficacy compared to morphine” value in the assay with rats (3 mg/kg s.c., in words) was “more effective than morphine”. For the same compound, the “duration of antinociceptive effect compared to other drugs” value with rats (3 mg/kg s.c., in words) is listed as “more prolonged effects compared to other drugs”. The “antinociception, potency and dose dependence” value in the assay on rats (in words) was “more potent”.

For `[2H][C@@H]1[C@H]([2H])[C@H]2[C@H]3Cc4ccc(OC)c5c4[C@@]2(CCN3C)[C@@H](O5)[C@H]1O` [Example 2, (5α,6α,7β,8β)-4,5-epoxy-6-hydroxy-3-methoxy-17-methyl-(7,8-^2H2)-morphinan], the figures for the Ki on μ-opioid receptors and at δ-opioid receptors were 0.0341 ± 0.00108 µM and greater than 10 µM, respectively. Besides, at μ-opioid receptors (in words), the “affinity to μ-opioid receptors compared to the corresponding hydrogenated derivative” value is “higher affinity to μ-opioid receptors than the corresponding hydrogenated derivatives”. In addition, the “Time course” value stood at 9.9 s in the assay with rats (3 mg/kg s.c., 0 min (baseline)); 12.1 s in the assay on rats (3 mg/kg s.c., 30 min); 11.9 s with rats (3 mg/kg s.c., 60 min); 11.7 s with rats (3 mg/kg s.c., 90 min); 11.8 s in the assay with rats (3 mg/kg s.c., 120 min); 10.1 s in the assay with rats (setting [1]). Also, the “Time course” value with rats (10 mg/kg s.c., 30 min) is 14.2 s; in the assay on rats (10 mg/kg s.c., 60 min) it was 14.8 s; in the assay with rats (10 mg/kg s.c., 90 min), 14.9 s; in the assay with rats (10 mg/kg s.c., 120 min) it was 14.1 s. The “antinociceptive effect compared to non-deuterated analogues” value with rats (10 mg/kg s.c., in words) is “increased and prolonged the effect”. In addition, in the assay on rats (in words), the “antinociception, potency and dose dependence” value is reported as “lower potency”.

In the case of `[2H][C@@H]1[C@H]([2H])[C@H]2[C@H]3Cc4ccc(OC(C)=O)c5c4[C@@]2(CCN3C)[C@@H](O5)[C@H]1OC(C)=O` [Example 4, (5α,6α,7β,8β)-3,6-diacetoxy-4,5-epoxy-17-methyl-(7,8-^2H2)-morphinan], the Ki was found to be 0.00289 ± 0.0007 µM on μ-opioid receptors and 0.211 ± 0.024 µM at δ-opioid receptors. Also, the “affinity to μ-opioid receptors compared to morphine” value at μ-opioid receptors (in words) was “higher affinity to μ-opioid receptors than the morphine”. Moreover, the “Ki^δ/Ki^μ” value on μ-opioid receptors (selectivity ratio δ/μ) is given as 73. The “Time course” value in the assay on rats (3 mg/kg s.c., 0 min (baseline)) worked out at 9.7 s; in the assay with rats (3 mg/kg s.c., 30 min), 19.7 s; with rats (3 mg/kg s.c., 60 min) it was 17.9 s; with rats (3 mg/kg s.c., 90 min), 14.3 s; in the assay on rats (3 mg/kg s.c., 120 min), 11.4 s. The “duration of antinociceptive effect compared to other drugs” value in the assay on rats (3 mg/kg s.c., in words) is given as “more prolonged effects compared to other drugs”. The “antinociception, potency and dose dependence” value in the assay with rats (in words) is “more potent”.

Turning to `[2H][C@H]1C(=O)[C@@H]2Oc3c(OC)ccc4c3[C@@]23CCN(C)[C@H](C4)[C@]3(O)[C@H]1[2H]` [Example 5, (5α,7β,8β,14β)-4,5-epoxy-14-hydroxy-3-methoxy-17-methyl-(7,8-^2H2)-morphinan-6-one], the “Time course” value is 9.9 s in the assay with rats (3 mg/kg s.c., 0 min (baseline)); 13.3 s with rats (3 mg/kg s.c., 30 min); 13.7 s in the assay on rats (3 mg/kg s.c., 60 min); 13.6 s with rats (3 mg/kg s.c., 90 min); 12.1 s with rats (3 mg/kg s.c., 120 min).

Consider `CN1CC[C@]23c4c5ccc(O)c4O[C@H]2[C@@H](O)C=C[C@H]3[C@H]1C5` [Morphine], for which the “Time course” value with rats (3 mg/kg s.c., 0 min (baseline)) amounted to 10.1 s; with rats (3 mg/kg s.c., 30 min) it was 14.4 s; in the assay with rats (3 mg/kg s.c., 60 min), 13.9 s; in the assay with rats (3 mg/kg s.c., 90 min), 13.2 s; in the assay on rats (3 mg/kg s.c., 120 min), 12.8 s; in the assay with rats (setting [1]), 9.9 s. Also, the “Time course” value in the assay with rats (10 mg/kg s.c., 30 min) came to 18.2 s; with rats (10 mg/kg s.c., 60 min), 18.8 s; with rats (10 mg/kg s.c., 90 min) it was 14.4 s; with rats (10 mg/kg s.c., 120 min), 10.5 s.

On to `COc1ccc2c3c1O[C@H]1C(=O)CC[C@@]4(O)[C@@H](C2)N(C)CC[C@]314` [Oxycodone], for which the “Time course” value was 9.8 s with rats (3 mg/kg s.c., 0 min (baseline)); 12.2 s in the assay with rats (3 mg/kg s.c., 30 min); 12.6 s with rats (3 mg/kg s.c., 60 min); 11.9 s with rats (3 mg/kg s.c., 90 min); 10.6 s with rats (3 mg/kg s.c., 120 min).
